Results as given in US8222244B2, “Staurosporine derivatives as inhibitors of FLT3 receptor tyrosine kinase activity” (Novartis AG, priority 2001, dated 2012).

Biological target: T1, human Flt-3 (Homo sapiens, UniProt P36888)
T1 construct: expresses the amino acid region amino acids 563-993 of the intra-cytoplasmic kinase domains of human Flt-3; made in house; host or cells: Sf9 insect cells (baculovirus, pFbacG01 donor vector)
T1 sequence (P36888 563-993): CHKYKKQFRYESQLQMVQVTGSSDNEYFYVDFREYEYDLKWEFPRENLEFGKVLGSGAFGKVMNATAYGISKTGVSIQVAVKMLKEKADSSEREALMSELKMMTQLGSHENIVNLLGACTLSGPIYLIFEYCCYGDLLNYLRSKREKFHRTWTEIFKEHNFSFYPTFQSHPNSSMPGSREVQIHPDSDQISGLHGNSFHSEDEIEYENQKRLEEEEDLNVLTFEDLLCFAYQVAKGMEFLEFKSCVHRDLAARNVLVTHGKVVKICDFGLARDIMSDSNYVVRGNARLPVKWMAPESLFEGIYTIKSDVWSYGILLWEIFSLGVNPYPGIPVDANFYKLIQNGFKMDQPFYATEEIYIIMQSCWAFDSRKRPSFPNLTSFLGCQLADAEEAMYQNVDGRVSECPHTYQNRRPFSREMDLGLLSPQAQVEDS
Assay: Tyrosine protein kinase assay with purified GST-Flt-3 (33P incorporation)
Assay type: biochemical
Details: at a 1.0 micromolar concentration
Outline: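 GST-fused Flt-3 cytoplasmic domain, expressed in baculovirus-infected Sf9 cells and purified, phosphorylates substrate with [γ-33P]ATP. Reaction spotted onto PVDF membranes, washed with H3PO4 and ethanol, and incorporated 33P counted by scintillation.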

Compound | Flt3 Inhibition (percent inhibition of Flt3 kinase activity) [%]
(9a,10b,11b,13a)-11-[[N-Acetyl-1-O-(phenylmethyl)-a-isomuramoyl]methylamino]-2,3,10,11,12,13-hexahydro-10-methoxy-9-methyl-9,13-epoxy-1H,9H-diindolo[1,2,3-gh:3′,2′,1′-lm]pyrrolo[3,4-j][1,7]benzodiazonin-1-one [149713-64-4] | 76
(9a,10b,11b,13a)-11-[[N-Acetyl-4,6-O-(1-methylethylidene)-1-O-(phenylmethyl)-a-isomuramoyl]methylamino]-2,3,10,11,12,13-hexahydro-9-methyl-10-methoxy-9,13-epoxy-1H,9H-diindolo[1,2,3-gh:3′,2′,1′-lm]pyrrolo[3,4-j][1,7]benzodiazonin-1-one [149622-59-3] | 77
COC1C(N(C)C(=O)C(C)OC2CCOCC2)CC2OC1(C)n1c3ccccc3c3c4c(c5c6ccccc6n2c5c31)C(=O)NC4 (stereo not drawn) [160251-50-3, [9S-[9a,10b,11b(S*),13a]]-N-(2,3,10,11,12,13-Hexahydro-10-methoxy-9-methyl-1-oxo-9,13-epoxy-1H,9H-diindolo[1,2,3-gh:3′,2′,1′-lm]pyrrolo[3,4-j][1,7]benzodiazonin-11-yl)-N-methyl-2-[(tetrahydro-2H-pyran-4-yl)oxy]-propanamide] | 89
COC1C(N(C)C(=O)C(F)(F)F)CC2OC1(C)n1c3ccccc3c3c4c(c5c6ccccc6n2c5c31)C(=O)NC4 [120685-12-3, 2,2,2-Trifluoro-N-[(9S,10R,11R,13R)-2,3,10,11,12,13-hexahydro-10-methoxy-9-methyl-1-oxo-9,13-epoxy-1H,9H-diindolo[1,2,3-gh:3′,2′,1′-lm]pyrrolo[3,4-j][1,7]benzodiazonin-11-yl]-N-methyl-acetamide] | 66
(9a,10b,11b,13a)-N-(2,3,10,11,12,13-Hexahydro-10-methoxy-9-methyl-1-oxo-9,13-epoxy-1H,9H-diindolo[1,2,3-gh:3′,2′,1′-lm]pyrrolo[3,4-j][1,7]benzodiazonin-11-yl)-N-methyl-4-nitro-benzamide [120685-46-3] | 81
COC1C(N(C)C(=O)c2cccc([N+](=O)[O-])c2)CC2OC1(C)n1c3ccccc3c3c4c(c5c6ccccc6n2c5c31)C(=O)NC4 (stereo not shown) [120685-15-6, (9a,10b,11b,13a)-N-(2,3,10,11,12,13-Hexahydro-10-methoxy-9-methyl-1-oxo-9,13-epoxy-1H,9H-diindolo[1,2,3-gh:3′,2′,1′-lm]pyrrolo[3,4-j][1,7]benzodiazonin-11-yl)-N-methyl-3-nitro-benzamide] | 74
COC1C(N(C)C(=O)c2ccc(F)cc2)CC2OC1(C)n1c3ccccc3c3c4c(c5c6ccccc6n2c5c31)C(=O)NC4 (stereo not shown) [120685-44-1, (9a,10b,11b,13a)-4-Fluoro-N-(2,3,10,11,12,13-hexahydro-10-methoxy-9-methyl-1-oxo-9,13-epoxy-1H,9H-diindolo[1,2,3-gh:3′,2′,1′-lm]pyrrolo[3,4-j][1,7]benzodiazonin-11-yl)-N-methyl-benzamide] | 55
COC1C(N(C)C(=O)CCN)CC2OC1(C)n1c3ccccc3c3c4c(c5c6ccccc6n2c5c31)C(=O)NC4.Cl (stereo not drawn) [124078-41-7, [9S-(9a,10b,11b,13a)]-3-Amino-N-(2,3,10,11,12,13-hexahydro-10-methoxy-9-methyl-1-oxo-9,13-epoxy-1H,9H-diindolo[1,2,3-gh:3′,2′,1′-lm]pyrrolo[3,4-j][1,7]benzodiazonin-11-yl)-N-methyl-propanamide, monohydrochloride] | 99
(9a,10b,11b,13a)-11-[[N-Acetyl-4-O-acetyl-6-O-(1-oxooctadecyl)-a-muramoyl]methylamino]-2,3,10,11,12,13-hexahydro-10-methoxy-9-methyl-9,13-epoxy-1H,9H-diindolo[1,2,3-gh:3′,2′,1′-lm]pyrrolo[3,4-j][1,7]benzodiazonin-1-one [149622-64-0] | 27
(9a,10b,11b,13a)-11-[[N-Acetyl-6-O-(methylsulfonyl)-a-muramoyl]methylamino]-2,3,10,11,12,13-hexahydro-10-methoxy-9-methyl-9,13-epoxy-1H,9H-diindolo[1,2,3-gh:3′,2′,1′-lm]pyrrolo[3,4-j][1,7]benzodiazonin-1-one [149622-54-8] | 94
(9a,10b,11b,13a)-11-[(N-Acetyl-a-normuramoyl)methylamino]-2,3,10,11,12,13-hexahydro-10-methoxy-9-methyl-9,13-epoxy-1H,9H-diindolo[1,2,3-gh:3′,2′,1′-lm]pyrrolo[3,4-j][1,7]benzodiazonin-1-one [149622-55-9] | 85
CO[C@@H]1[C@H](N(C)C(=O)CNC(=O)OC(C)(C)C)C[C@H]2O[C@]1(C)n1c3ccccc3c3c4c(c5c6ccccc6n2c5c31)C(=O)NC4 [124078-43-9, [9S-(9a,10b,11b,13a)]-[2-[(2,3,10,11,12,13-Hexahydro-10-methoxy-9-methyl-1-oxo-9,13-epoxy-1H,9H-diindolo[1,2,3-gh:3′,2′,1′-lm]pyrrolo[3,4-j][1,7]benzodiazonin-11-yl)methylamino]-2-oxoethyl]-carbamic acid, 1,1-dimethylethyl ester] | 65
COC1C(N(C)C(=O)c2ccc(O)cc2)CC2OC1(C)n1c3ccccc3c3c4c(c5c6ccccc6n2c5c31)C(=O)NC4 [165815-73-6, N-[(9S,10R,11R,13R)-2,3,10,11,12,13-Hexahydro-10-methoxy-9-methyl-1-oxo-9,13-epoxy-1H,9H-diindolo[1,2,3-gh:3′,2′,1′-lm]pyrrolo[3,4-j][1,7]benzodiazonin-11-yl]-4-hydroxy-N-methyl-benzamide] | 91
(9a,10b,11b,13a)-11-[[N-Acetyl-1-deoxy-6-O-[(4-methylphenyl)sulfonyl]muramoyl]methylamino]-2,3,10,11,12,13-hexahydro-10-methoxy-9-methyl-, 9,13-epoxy-1H,9H-diindolo[1,2,3-gh:3′,2′,1′-lm]pyrrolo[3,4-j][1,7]benzodiazonin-1-one [149622-70-8] | 67
CO[C@@H]1[C@H](N)C[C@H]2O[C@]1(C)n1c3ccccc3c3c4c(c5c6ccccc6n2c5c31)C(=O)NC4 [126221-77-0, (9S,10R,11R,13R)-11-Amino-2,3,10,11,12,13-hexahydro-10-methoxy-9-methyl-9,13-epoxy-1H,9H-diindolo[1,2,3-gh:3′,2′,1′-lm]pyrrolo[3,4-j][1,7]benzodiazonin-1-one] | 96
(9a,10b,11b,13a)-11-[(N-Acetyl-1-deoxymuramoyl)methylamino]-2,3,10,11,12,13-hexahydro-10-methoxy-9-methyl-9,13-epoxy-1H,9H-diindolo[1,2,3-gh:3′,2′,1′-lm]pyrrolo[3,4-j][1,7]benzodiazonin-1-one [149622-63-9] | 98
